Like-named read-outs stand apart in the source and are kept apart here.
Columns and labels:
[1] = in vivo; cited from earlier work
CYP2D6 = biological target: T1, CYP2D6 (Homo sapiens, UniProt P10635); conditions: humans; cited from earlier work
T1 construct: host or cells: human subjects (endogenous enzyme of gut wall and liver)

[2] = cited from earlier work
[3] = Nonclinical proof-of-concept PD study: drug self-administration after CYP2D6 inhibitor plus ibogaine; type: in vivo, rats and/or nonhuman primates; conditions: single dose CYP2D6 inhibitor followed by single dose ibogaine
Experimental: Nonclinical proof-of-concept PD studies (rats and/or nonhuman primates):
Dose(s) of CYP2D6 inhibitor based on prior PK studies in the same species are tested. Intravenous drug self-administration studies involve training the animal to emit a response (e.g., lever press) for a non-drug reinforcer (e.g., food) under specific stimulus conditions in the test chamber. Then, the animal undergoes aseptic surgery to place a chronically indwelling intravenous cannula that is connected to a drug infusion system within the test chamber. After surgical recovery, the stimulus conditions in the test chamber now signal the availability of a drug reinforcer (e.g., morphine or cocaine), and lever pressing results in an intravenous infusion of the available drug during daily session. For studies of oral self-administration (e.g., ethanol), animals are trained to self-administer the drug using a lever paradigm (e.g., in which pressing of the lever results in delivery of the drug solution into a drinking cup) or a two-bottle choice […] paradigm (e.g., in which animals are allowed to drink for 24 hours from one bottle containing a drug solution or another bottle containing water). During a test session, vehicle or a dose of CYP2D6 inhibitor is administered prior to a dose of ibogaine and then, responses on the drug-associated lever or the volume of drug solution consumed are measured.

[4] = in vivo; cited from earlier work; remark: listed apart in the source
[5] = animals, meta-analysis; cited from earlier work
[6] = single oral 8-12 mg/kg HCl; cited from earlier work
[7] = single oral 10 mg/kg ibogaine, cited from earlier work
[8] = cited from earlier work; for plasma exposures with chronic paroxetine: CYP2D6 extensive metabolizers, paroxetine 10-20 mg, single ibogaine 20 mg (about 0.3 mg/kg); for time out to which ibogaine plasma exposures are detectable: single ibogaine 20 mg
[9] = single oral administration, humans; cited from earlier work
[10] = oral administration; cited from earlier work

T1 sequence (P10635 whole entry): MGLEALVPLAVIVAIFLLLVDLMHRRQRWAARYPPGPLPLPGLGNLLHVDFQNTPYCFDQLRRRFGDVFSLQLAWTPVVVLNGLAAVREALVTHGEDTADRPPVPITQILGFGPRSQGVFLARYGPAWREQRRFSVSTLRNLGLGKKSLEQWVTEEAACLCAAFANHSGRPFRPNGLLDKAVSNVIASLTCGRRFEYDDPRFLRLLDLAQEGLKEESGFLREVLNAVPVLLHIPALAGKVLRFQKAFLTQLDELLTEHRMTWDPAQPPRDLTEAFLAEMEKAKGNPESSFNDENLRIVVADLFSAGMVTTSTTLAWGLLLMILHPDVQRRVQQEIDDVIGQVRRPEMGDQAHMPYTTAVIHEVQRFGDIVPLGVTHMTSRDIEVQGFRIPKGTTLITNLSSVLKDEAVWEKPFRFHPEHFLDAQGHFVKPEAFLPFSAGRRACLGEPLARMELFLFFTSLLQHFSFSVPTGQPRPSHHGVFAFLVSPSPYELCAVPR

CNCCC(Oc1ccc(C(F)(F)F)cc1)c1ccccc1 (stereo not shown) [Fluoxetine, fluoxetine]
half-life [1]: long half-life (days)

C=C[C@H]1C[N@@]2CC[C@H]1C[C@@H]2[C@@H](O)c1ccnc2ccc(OC)cc12 [Quinidine, quinidine]
in vivo CYP2D6 inhibition (CYP2D6): can inhibit the metabolism of the CYP2D6 substrate debrisoquine in vivo

CC(NC(C)(C)C)C(=O)c1cccc(Cl)c1 (stereo not shown) [bupropion]
single-dose half-life ([2]; single dose): 10 to 15 h

C[C@H]1NC(C)(C)CO[C@]1(O)c1cccc(Cl)c1 [hydroxybupropion]
half-life of metabolite ([2]; bupropion metabolites that also inhibit CYP2D6): 22 to 25 h

CCC1CC2CC3c4[nH]c5ccc(OC)cc5c4CCN(C2)C13 (stereo not shown) [ibogaine, Ibogaine]
therapeutic-like effects (reduction of drug self-administration) with CYP2D6 inhibitor pretreatment [3]: increases ibogaine's therapeutic-like effects | time within which visualizations and perceptual changes subside [4]: 6 to 8 h | self-administration of drugs (opiates, cocaine, ethanol) [5]: reduced self-administration of several drugs | opioid withdrawal signs, craving and mood [6]: reduced opioid withdrawal signs and craving and increased mood | absorbed ibogaine eliminated by 24 hours post dose ([7]; CYP2D6 extensive metabolizers): > 90% | exposure in CYP2D6 poor metabolizers compared to extensive metabolizers [7]: modestly increased | plasma exposures with chronic paroxetine [8]: increased plasma exposures | time out to which ibogaine plasma exposures are detectable ([8]; chronic paroxetine 10-20 mg): 72 h | time out to which ibogaine plasma exposures are detectable ([8]; chronic placebo treatment): < 4 h | time blood concentrations were detectable [9]: about 24 h | time to peak blood concentration [9]: peaked within a couple of hours | cardiac QT interval [10]: associated with cardiac QT interval prolongation

CC[C@H]1C[C@H]2C[C@H]3c4[nH]c5ccc(O)cc5c4CCN(C2)[C@@H]13 [noribogaine]
Cmax in blood ([7]; CYP2D6 extensive metabolizers): in the same range as the parent drug | concentrations at 24 hours ([7]; CYP2D6 extensive metabolizers): remained elevated | exposure in CYP2D6 poor metabolizers compared to extensive metabolizers [7]: markedly decreased | plasma exposures with chronic paroxetine [8]: decreased plasma exposures | time blood concentrations were detectable [9]: detectable for a longer duration | time to peak blood concentration [9]: peaked later

— US20230100844A1, “IBOGAINE COMBINATION TREATMENT” (ATAI Life Sciences AG, priority 2021, published 2023)
